Legend:
[1] = tested on: Bursaphelenchus xylophilus; experiment: Occurrence of pine wilt disease after trunk injection of induced resistance candidate materials, in vivo test in young red pine trees; conditions: red pine tree (Pinus densiflora), 30 days after inoculation; for Occurrence rate of pine wilt disease: Number of pine trees showing wilt symptoms / Number of pine trees used for the test: trunk injection 100 µℓ per tree; for Number of pine trees showing wilt symptoms only at growing points of a stem: trunk injection
Method: By using the 15 types of an induced resistance elicitors which have been known to induce the plant resistance against various diseases as candidates, their controlling effect against pine wilt disease was examined. The control efficacy of candidates against pine wilt disease was analyzed according to an in vivo test using red pine tree (Pinus densiflora) which was 2-year old young pine trees (diameter of 5.5 mm or so, and height of about 35 mm).
As a candidate group of an induced resistance material, two kinds of acibenzolar-S-methyl (ASM), TDL (Tiadinil), ITL (Isotianil), PBZ (Probenzole), AZO (Azoxystrobin), VMA (Validamycin A), MeJA (Methyl jasmonate), BABA (DL-3-aminobutyric acid), 2,3-BDO (2,3-Butanediol), SA (salicyclic acid), GABA (r-Aminobutyric acid), glucan (Glucan), ER (Ergosterol), and AZA (Azelaic acid) were used. Only the use of acibenzolar-S-methyl is according to the invention. Injection of the chemicals was carried out by trunk injection method, i.e., at an angle of 45°, a borehole was created by using an electric drill with thickness of 1.5 mm on a pine stem part that is 5 to 10 cm above the soil surface, a tip (200 µℓ) was inserted to the hole, and, after dissolving the candidate material at concentration level of 200, 20, or 2 µg/mℓ in each solvent, the solution was injected in an amount of 100 µℓ per pine tree. After the injection of the chemical agent, the end part of the tip was sealed with parafilm.
The pine tree wilt nematodes (Bursaphelenchus xylophilus, National Institute of Forest Science (NIFoS), South Korea) was incubated at 25°C by feeding them with Botrytis cinerea, which have been cultured on a potato dextrose agar (PDA) medium, and after one week incubation, they were collected by Baermann funnel method and were adjusted to the level of 20,000 worms/mℓ by examining the number of the worms under an optical microscope. One week after the chemical treatment, the inoculation of the pine tree wilt nematodes was carried out by tree barking inoculation of 100 µℓ, i.e., 2,000 worms, per tree, and the result was determined 30 days after the inoculation. […] [Table 1] Occurrence rate of pine wilt disease in candidate group of induced resistance materials

PR_2 family = experiment: qRT-PCR expression of induced resistance gene in pine tree callus; format: cell-based; conditions: 200 µg/mℓ, 24 hours
Method: (§1) For in vitro analysis of induced resistance, the expression of PR genes and other plant defense-related genes was determined, which are evolved in various defense mechanisms including induced resistance. The primers of sixteen induced resistance-related genes of pine tree used in this invention were listed in the below and elongation factor_1 alpha were used as a reference gene. [Table 4] The primer list of defense resistance-related genes
(§2) After the treatment with 200 µg / mℓ of candidates of the selected induced resistance material, expression of the induced resistance-related gene in pine callus was determined by qRT-PCR using the primer pairs of defense resistance-related genes in Table 4. As a candidate group of an induced resistance material in pine tree, acibenzolar-S-methyl (ASM), TDL (Tiadinil), ITL (Isotianil), PBZ (Probenzole), AZO (Azoxystrobin), VMA (Validamycin A), MeJA (Methyl jasmonate), BABA (DL-3-aminobutyric acid), 2,3-BDO (2,3-Butanediol), GABA (r-Aminobutyric acid), glucan (Glucan), ER (Ergosterol), and AZA (Azelaic acid) were used. For the in vitro analysis of the expression of induced resistance gene in pine callus, the selected induced resistance materials were applied with 500 µℓ of LM liquid medium on a surface of pine tree callus (100 mg) in 12-well microplate to give final concentration of 200 µg/mℓ. Then, the callus surface was sufficiently reacted for 24 hours with the candidate of pine tree induced resistance material by shaking at 50 rpm in a 25 °C shaking incubator under dark condition. RNAs were extracted from the callus after completion of the reaction with an induced resistance material, followed by synthesis of cDNAs. Then, by carrying out qRT-PCR, the expression of induced resistance genes was determined. [Table 5] Expression of induced resistance gene in pine tree callus by TDL, PBZ, ASM, ITL, AZO, VMA, glucan, and AZA
(§3) Based on the results of assay using young plants and gene expression by selected induce resistance materials, it seemed that acibenzolar-S-methyl had the most excellent effect. Thus, the following tests were carried out using acibenzolar-S-methyl only. Expression of the induced resistance genes at different culture time after the chemical treatment was examined. For the in vitro assay, LM medium containing pine tree callus was treated with acibenzolar-S-methyl at concentration of 200 µg / mℓ, followed by reaction for 1 day, 7 days, or 14 days in a 25°C shaking incubator under dark condition. RNAs were extracted from the callus after the reaction followed by synthesis of cDNAs. Then, by carrying out qRT-PCR, the expression of the induced resistance genes was determined. Depending on reaction time after the treatment, i.e., after 1 day, 7 days, or 14 days, the expression of the obtained induced resistance genes was examined. As a result of the in vitro callus assay depending on reaction time after the treatment with acibenzolar-S-methyl, the expression of the induced resistance-related genes is the highest at 1 day after the treatment with acibenzolar-S-methyl and gradually diminished over time, as it is shown in Table 7. In this regard, it is contemplated that the expression of genes acquired by acibenzolar-S-methyl is not maintained in highly expressed state until the pathogen invasion and just memorized with at minimum level so that the energy consumption by plant can be efficiently managed. [Table 7] Expression of induced resistance gene in pine tree callus by acibenzolar-S-methyl depending on reaction time
(§4) To have an in vitro assay according to different methods of treatment with acibenzolar-S-methyl, two separate treatment methods, i.e., surface treatment (spraying treatment) of pine tree callus and direct application of the induced resistance material to an LM medium containing pine tree callus, were performed. […]

PR_3 family class 1 = experiment: as above; format: cell-based; conditions: 200 µg/mℓ, 24 hours
Method: as §1, §2, §3, §4

PR_9 family = experiment: as above; format: cell-based; conditions: 200 µg/mℓ, 24 hours
Method: as §1, §2, §3, §4

Xyloglucan = experiment: as above; format: cell-based; conditions: 200 µg/mℓ, 24 hours
Method: as §1, §2, §3, §4

PR_4 family = experiment: as above; format: cell-based; conditions: 200 µg/mℓ, 24 hours
Method: as §1, §2, §3, §4

PR_3 family class 4 = experiment: as above; format: cell-based; conditions: 200 µg/mℓ, 24 hours
Method: as §1, §2, §3, §4

Hydroxyproline = experiment: as above; format: cell-based; conditions: 200 µg/mℓ, 24 hours
Method: as §1, §2, §3, §4

Antipeptide = experiment: as above; format: cell-based; conditions: 200 µg/mℓ, 24 hours
Method: as §1, §2, §3, §4

Metallothionein = experiment: as above; format: cell-based; conditions: 200 µg/mℓ, 24 hours
Method: as §1, §2, §3, §4

Heat shock 70 = experiment: as above; format: cell-based; conditions: 200 µg/mℓ, 24 hours
Method: as §1, §2, §3, §4

Structure (SMILES): O=C(O)CCCCCCCC(=O)O [AZA, Azelaic acid]
- Occurrence rate of pine wilt disease: Number of pine trees showing wilt symptoms / Number of pine trees used for the test ([1]; 2 µg/mℓ): 2/3
- Occurrence rate of pine wilt disease: Number of pine trees showing wilt symptoms / Number of pine trees used for the test ([1]; 20 µg/mℓ): 2/3
- Occurrence rate of pine wilt disease: Number of pine trees showing wilt symptoms / Number of pine trees used for the test ([1]; 200 µg/mℓ): 2/3
- Number of pine trees showing wilt symptoms only at growing points of a stem ([1]; 20 µg/mℓ): 1
- Number of pine trees showing wilt symptoms only at growing points of a stem ([1]; 200 µg/mℓ): 2
- Expression of induced resistance gene, PR_2 family (PR_2 family): 1.02
- Expression of induced resistance gene, PR_3 family class 1 (PR_3 family class 1): 1.12
- Expression of induced resistance gene, PR_9 family (PR_9 family): 1.27
- Expression of induced resistance gene, Xyloglucan (Xyloglucan): 0.76
- Expression of induced resistance gene, PR_4 family (PR_4 family): 0.99
- Expression of induced resistance gene, PR_3 family class 4 (PR_3 family class 4): 1.16
- Expression of induced resistance gene, Hydroxyproline (Hydroxyproline): 0.9
- Expression of induced resistance gene, Antipeptide (Antipeptide): 1.43
- Expression of induced resistance gene, Metallothionein (Metallothionein): 1.97
- Expression of induced resistance gene, Heat shock 70 (Heat shock 70): 1.42

From patent EP3685668B1, “COMPOSITION COMPRISING ACIBENZOLAR-S-METHYL AS EFFECTIVE INGREDIENT FOR CONTROLLING BURSAPHELENCHUS XYLOPHILUS DISEASE AND METHOD FOR CONTROLLING BURSAPHELENCHUS XYLOPHILUS USING SAME” (Industry Foundation of Chonnam National University, priority 2017, dated 2019)
